In patent US20040152735A1, “NO-synthase inhibitors comprising N,N'-bis(2-pyridyl)methyl-N,N'-bis(3,4,5-trimethoxybenzyl) ethylenediamine” (SOCIETE L'OREAL, S.A., priority 2001, published 2004):

Molecular target: T1, inducible NO-synthase (NO-synthase 2) (Homo sapiens, UniProt P35228)
T1 construct: positive control (induction of the enzyme): mixtures of interferon-(1000 U/ml) and of interleukin 1-(100 U/ml); endogenous in cells; 267(30), 21277-21280, 1992
Assay: Inhibition of inducible NO-synthase (test of Heck et al.): nitrite/nitrate measured after stimulating NO-synthase 2 with interferon and interleukin 1
Type: cell-based
Description: The activity of N,N′-bis(2-pyridyl)methyl-N,N′-bis(3,4,5-trimethoxybenzyl)ethylenediamine on inducible NO-synthase was evaluated in the test described by Heck et al., (J.B.C., Vol. 267, No. 30, 21277-21280, Oct. 25, 1992).
The object of this test is to show the reduction in the concentration of nitrate and nitrite, ultimately, after stimulating NO-synthase 2.
The following controls were introduced into the tests:
A: positive control (induction of the enzyme): mixtures of interferon-(1000 U/ml) and of interleukin 1-(100 U/ml);
To determine the activity of the test product, the amount of stable NO reaction products (nitrites and nitrates) is measured using the “nitric calorimetric assay” kit marketed by Boehringer under the reference 1756.28.
N,N′-bis(2-pyridyl)methyl-N,N′-bis(3,4,5-trimethoxybenzyl) ethylenediamine was tested at concentrations of 10 μM, 50 μM and 100 μM in ethanol.

T1 sequence (P35228 whole entry, species assumed): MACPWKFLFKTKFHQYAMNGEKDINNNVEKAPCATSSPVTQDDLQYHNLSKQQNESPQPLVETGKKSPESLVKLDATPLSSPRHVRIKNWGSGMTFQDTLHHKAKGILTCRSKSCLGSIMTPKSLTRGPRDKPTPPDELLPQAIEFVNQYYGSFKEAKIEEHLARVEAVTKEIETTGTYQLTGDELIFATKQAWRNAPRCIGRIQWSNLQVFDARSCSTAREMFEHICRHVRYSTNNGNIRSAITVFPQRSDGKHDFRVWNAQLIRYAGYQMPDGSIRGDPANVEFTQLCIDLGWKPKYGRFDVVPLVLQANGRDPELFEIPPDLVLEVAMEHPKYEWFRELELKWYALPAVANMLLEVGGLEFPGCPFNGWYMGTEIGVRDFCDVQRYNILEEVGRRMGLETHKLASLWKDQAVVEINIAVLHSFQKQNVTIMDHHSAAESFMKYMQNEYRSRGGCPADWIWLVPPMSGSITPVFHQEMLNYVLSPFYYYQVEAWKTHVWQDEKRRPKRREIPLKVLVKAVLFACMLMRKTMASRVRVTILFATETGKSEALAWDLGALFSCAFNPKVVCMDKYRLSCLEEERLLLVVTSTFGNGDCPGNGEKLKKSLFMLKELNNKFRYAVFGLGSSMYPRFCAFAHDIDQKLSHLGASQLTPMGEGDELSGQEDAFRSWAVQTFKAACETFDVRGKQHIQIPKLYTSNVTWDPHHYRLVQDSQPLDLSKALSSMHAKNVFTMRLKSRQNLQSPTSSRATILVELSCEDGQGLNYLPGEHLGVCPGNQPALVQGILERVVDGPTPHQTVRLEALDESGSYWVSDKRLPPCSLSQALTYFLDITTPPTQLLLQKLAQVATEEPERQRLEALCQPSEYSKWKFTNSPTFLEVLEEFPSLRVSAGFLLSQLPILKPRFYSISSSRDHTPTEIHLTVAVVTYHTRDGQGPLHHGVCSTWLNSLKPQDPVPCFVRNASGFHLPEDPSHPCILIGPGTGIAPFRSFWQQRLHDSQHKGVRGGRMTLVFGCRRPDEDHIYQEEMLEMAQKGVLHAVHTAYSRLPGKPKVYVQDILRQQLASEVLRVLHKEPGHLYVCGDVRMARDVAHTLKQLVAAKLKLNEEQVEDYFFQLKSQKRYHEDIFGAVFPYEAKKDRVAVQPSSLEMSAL

COc1cc(CN(CCN(Cc2cc(OC)c(OC)c(OC)c2)Cc2ccccn2)Cc2ccccn2)cc(OC)c1OC [N,N′-bis(2-pyridyl)methyl-N,N′-bis(3,4,5-trimethoxybenzyl)ethylenediamine]
inhibition at 10 µM (10 μM in ethanol, nitrites and nitrates after induction with interferon (1000 U/ml) and interleukin 1 (100 U/ml)): 18.8% | inhibition at 50 µM (50 μM in ethanol, nitrites and nitrates after induction with interferon (1000 U/ml) and interleukin 1 (100 U/ml)): 48.3% | inhibition at 100 µM (100 μM in ethanol, nitrites and nitrates after induction with interferon (1000 U/ml) and interleukin 1 (100 U/ml)): 62% | effect on inducible NO-synthase (in words) (conclusion from the test at 10-100 μM): has an inhibitory effect on inducible NO-synthase
